The values that follow come from patent publication US20010006673A1, “LUTEIN- CONTAINING SUPPLEMENT AND PROCESS FOR ENHANCING IMMUNE RESPONSE IN ANIMALS” (priority 1998, published 2001).

Series [1] in a line: Plasma extraction and HPLC analysis in dogs (lutein+zeaxanthin, retinol, α-tocopherol). Format: in vivo, Beagle dogs. As to the method:
Fifty six female Beagle dogs (17 to 18 months old; average body weight 11.4±0.4 kg) were randomly assigned to be supplemented daily with 0, 5, 10 or 20 mg lutein for 17 weeks. The lutein contained 76.66% lutein and 5.23% zeaxanthin. The lutein supplement was resuspended in soybean oil to the appropriate concentration and 1 mL administered perorally at 0800 h daily. Food (200 g/dog/d) was offered immediately after the lutein supplementation. The basal diet shown in Table 1 below met or exceeded the requirements for all essential nutrients (NRC 1985).
Blood was collected by jugular venipuncture into heparinized evacuated tubes on weeks 0, 2, 4, 8 and 12 and aliquots used for HPLC analysis and for assessing immune responses.
Plasma was extracted for analysis of lutein, zeaxanthin, retinol and α-tocopherol. Briefly, plasma protein was precipitated by adding an equal volume of ethanol containing 0.1% butylated hydroxytoluene (BHT) (Aldrich Chemical Co., Milwaukee, Wis.). The mixture was extracted with 5 mL of a 1:1 mixture of petroleum ether:anhydrous diethyl ether.
The dried residue was resuspended in mobile phase consisting of a 47:47:6 (v:v:v) mixture of HPLC-grade acetonitrile: methanol: chloroform (Fisher Scientific, Fair Lawn, N.J.). Lutein, zeaxanthin and α-tocopherol were quantitated by comparing the area under the curve whereas retinol was quantitated using peak height. The identity of the eluted compounds was confirmed by comparing their absorption spectrum with that of pure standards. Because baseline separation of lutein and zeaxanthin was not accomplished, plasma concentrations were reported as lutein+zeaxanthin.

Series [2] has as its system lymphocyte subsets (CD5, CD4, CD8, MHC class II, CD21). The series is described as follows: Lymphocyte subsets by flow cytometry, dogs. The series is classed as in vivo, Beagle dogs. As to the method: Blood leukocytes were separated using Histopaque-1119 (Sigma, St. Louis, Mo.). Cells were washed three times with phosphate-buffered saline (PBS, pH 7.4) and contaminating erythrocytes were lysed in NH4CI (8.4 g/L). Lymphocyte subsets were determined by flow cytometry (FACScan, Becton Dickinson, San Jose, Calif.). Isolated mononuclear cells were resuspended to 1×10^7 cells/mL in PBS supplemented with 2% gamma globulin-free serum, 5% goat serum and 0.2 g/L sodium azide. For immunofluorescence analysis, a total of 5×10^5 cells were incubated for 30 minutes on ice with optimal concentrations of mouse anti-canine monoclonal antibody (mAb). The mAb used were specific for the following lymphocyte subsets: total T cells (anti-CD5), T-helper cells (anti-CD4), T-cytotoxic/suppressor cells (anti-CD8), lymphocytes expressing major histocompatability complex (MHQ class II antigens (anti-MHC class II), and B cells (anti-CD21). Cells were then washed three times and incubated with a secondary antibody, fluorescein isothiocyanate (FITC)-conjugated goat F(ab′)2 anti-mouse IgG+IgM (H+L) (Caltag, Burlingame, Calif.), for 30 minutes on ice to visualize the bound mAb. Stained cells were fixed in 4% paraformaldehyde in preparation for acquisition. Appropriate negative controls were included to correct for background fluorescence. Data were expressed as the percentage of positive-staining cells corrected for cells stained nonspecifically with the secondary antibody.

Series [3] has as its system malondialdehyde (MDA) production. The series is described as follows: Lipid peroxidation (TBARS) assay, dog plasma. The series is classed as in vivo, Beagle dogs. The following applies: dogs. As to the method: Plasma lipid peroxidation activity was determined by measuring malondialdehyde (MDA) production. The standard used was 1,1,3,3-tetramethoxypropane JMP) (Sigma Chem. Co., St. Louis, Mo.). Duplicate 500 μL plasma samples were pipetted into 15 ml, glass tubes and 3 mL of 10 g/L phosphoric acid and 1 ml of 6 g/L TBA solution were added. The mixture was boiled in a water bath for 45 minutes. Tubes were allowed to cool and the TBA-MDA complex was extracted with 4 ml of n-butanol. The butanol layer was separated by centrifugation at 1,000×g for 10 minutes and absorbance was measured on at 532 nm (Beckman, Fullerton, Calif.). The TBARS activity was expressed in nmole MDA/L plasma.

Series [4] relates to Crandell feline kidney fibroblast. The series is described as follows: NK cytotoxicity assay, cats. The series is classed as in vivo, Tabby cats. As to the method: The Crandell feline kidney fibroblast was used as the target cell. Target cells were resuspended to 2×10^5 cells/mL and triplicate 100 μL aliquots were pipetted into a 96-well U-bottom plate (Costar, Cambridge, Mass.) and cells allowed to adhere. Isolated PBMC (effector cells) were then added to the target cells to achieve effector:target cell (E:T) ratios of 25:1, 12.5:1 and 6.25:1. The cell mixture was incubated for 8 hours after which 100 μL Rose Bengal (2.5 g/L in PBS; Sigma, St. Louis, Mo.) were added and incubated at room temperature for 5 minutes. Optical density was measured at 550 nm using an ELISA plate reader. The percentage of NK-specific lysis was calculated as follows:
Specific cytotoxicity (%)=100×{1−[(OD of target cells and effector cells−OD of effector cells)/(OD of target cells)]}

Series [5] relates to IL-2. In words: IL-2 production in Con A-stimulated whole blood cultures, cats. The series is classed as in vivo, Tabby cats. As to the method: Whole blood was diluted 1:2 in RPMI-1640 complete medium and cultured for 48 hours in the presence of 5 μg/mL Con A. The conditioned medium was removed and frozen at −80° C. The IL-2 concentrations were determined in duplicate by ELISA using a human IL-2 kit (Intergen, Purchase, N.Y). The human anti-IL-2 was previously determined to cross-react with feline IL-2.

Series [6] deals with IgG. In words: Serum IgG by single radial immunodiffusion, cats. Format: in vivo, Tabby cats. As to the method:
Serum IgG concentration was determined by single radial immunodiffusion (SRID). Goat antiserum to cat IgG (15%, whole molecule) (Sigma, St. Louis, Mo.) was incorporated into agarose (10 g/L in PBS; Sigma, St. Louis, Mo.). The loading volume for the test serum and standard was 5 μL and the plates were incubated for 24 hours in a humidified chamber. Ring diameters were measured using a SRID reader (Transidyne General Corp., Ann Arbor, Mich.).

The subject of series [7] is transplantable murine mammary tumor cell line. As to conditions: mice, dietary lutein; cited from earlier work.
Series [8] concerns mouse splenocytes. The following applies: dietary lutein; cited from earlier work.

Turning to `CC1=C[C@H](O)CC(C)(C)[C@H]1/C=C/C(C)=C/C=C/C(C)=C/C=C/C=C(C)/C=C/C=C(C)/C=C/C1=C(C)C[C@@H](O)CC1(C)C` [lutein], the “Plasma concentrations of lutein+zeaxanthin” value in series [1] (dogs fed 10 and 20 mg lutein, after week 2, more gradually) is recorded as “continued to increase”. The “Plasma lutein+zeaxanthin vs unsupplemented animals” value in series [1] (dogs, weeks 2 through 12, P<0.05) was “significantly higher”. For the same compound, in series [1] (lutein-supplemented dogs, after 2 weeks of feeding), the “Plasma concentrations of lutein+zeaxanthin” value is given as “increased rapidly”. Besides, the “CD21+ B cell population” value in series [2] (dogs) is recorded as “did not significantly influence”. For the same compound, the “% CD8+ T cytotoxic cells vs control” value in series [2] (dogs fed 20 mg lutein, week 8) is “significantly higher”. Besides, the “% MHC class II cell populations vs unsupplemented dogs” value in series [2] (dogs fed 20 mg lutein, week 8 and 12) is “elevated”. Further, the “% CD4+ cells” value in series [2] (dogs fed 5 and 10 mg lutein, week 12) is listed as “higher”. For the same compound, in series [2] (dogs, week 12), the “CD8+ population” value is reported as “not influenced”. Moreover, in series [2] (dogs, weeks 4 and 8, statistically significant with 5 and 20 mg lutein), the “Percentages of CD5+ cells vs unsupplemented controls” value is “higher”. Moreover, the “Effect on plasma TBARS activity” value in series [3] was “did not significantly affect”. The “Plasma TBARS activity, average” value in series [3] (across all treatments and periods) was 95.8±0.1 nmol MDA/L. For the same compound, the NK cell cytotoxicity result in series [4] (cats fed 1 mg lutein, week 12 (E:T of 6.25:1) and 8 (E:T of 25:1)) is on record as “significantly higher”. In addition, the “NK cell cytotoxic activity” value in series [4] (cats fed 10 mg lutein, week 8, significant with E:T ratios of 6.25:1 and 25:1) is reported as “higher”. Also, the NK cell cytotoxicity result in series [4] (cats, E:T ratio of 12.5:1) is “No significant treatment differences”. The IL-2 production entry in series [5] (throughout the experimental period) is on record as “no significant differences”. Further, in series [5] (throughout the study), the “Average concentration of IL-2 in Con A-stimulated cultures” value amounted to 15.1 ± 0.79 ng/mL. Further, in series [6] (cats fed 10 mg lutein, week 12), the “Plasma IgG vs unsupplemented animals” value is listed as “significantly higher”. Also, the “Concentrations of plasma IgG” value in series [6] (cats fed 1 or 10 mg lutein, week 8) was “significantly higher”. In addition, in series [7], the Mammary tumor incidence result is “decreases”, the Tumor growth entry is reported as “decreases” and the Tumor latency result is “shortened”. In addition, the Lymphocyte proliferation entry in series [8] is “enhance”.
